Results on three compounds are retold here after the NIST ThermoML archive (doi:10.1016/j.fluid.2006.10.016).

The nature of this data set: activity coefficient (dimensionless); of the first substance listed, at infinite dilution; xn = mol fraction of the nth substance listed. To be noted: Liquid, x1 = 0.

Numbers after ± are expanded uncertainties.

For `CCCCCCCCCC` [decane] + CCCC[n+]1ccc(C)cc1.F[B-](F)(F)F, the activity coefficient runs as follows: (297 K) 491 ± 94; (307 K) 430 ± 82; (316 K) 389 ± 74; (325 K) 359 ± 68; (335 K) 320 ± 61; (344 K) 283 ± 54.
Turning to `CCCCCCCCC` [nonane] + CCCC[n+]1ccc(C)cc1.F[B-](F)(F)F, the activity coefficient (297 K) was found to be 309 ± 59; the activity coefficient (307 K) was 275 ± 52; the activity coefficient (316 K) was 241 ± 46; the activity coefficient (325 K) was determined as 229 ± 43; the activity coefficient (335 K) worked out at 201 ± 38; the activity coefficient (344 K) came to 201 ± 38.
Consider `CCCCCCCC` [octane] + CCCC[n+]1ccc(C)cc1.F[B-](F)(F)F, for which the activity coefficient (297 K) worked out at 182 ± 34; the activity coefficient (307 K) was found to be 170 ± 32; the activity coefficient (316 K) came to 158 ± 30; the activity coefficient (325 K) worked out at 142 ± 27; the activity coefficient (335 K) was 124 ± 23; the activity coefficient (344 K) amounted to 119 ± 22.
